# Laboratory results published in paper PMC3734263, “Fatty Acid Amide Hydrolase-Dependent Generation of Antinociceptive Drug Metabolites Acting on TRPV1 in the Brain” (PLoS ONE, 2013).
# Values joined by “and” are separate entries in the source; they are usually repeats but may differ in a detail not shown here. Identical values can stand only once. Like-named read-outs stand apart in the source and are kept apart here.
# Legend:
# [1] = test system: spinal serotonergic pathways; assay: Spinal serotonin content after lesion of descending serotonergic pathways; format: in vivo; conditions: 5,7-DHT 100 µg/rat intrathecal, 7 days; control 529±34
# rats [2] = assay: Paw pressure test, rat
# Protocol: The behavioural tests were performed in a quiet room and evaluated by a single investigator in a blinded manner. Treatments and/or genotypes were randomized in blocks and the number of animals in each block corresponded to the number of treatments and/or genotypes compared. […] Each animal was exposed to only one treatment.
# The rats were submitted to the paw pressure test, using an Ugo Basile analgesy meter with a probe tip diameter of 1 mm (Bioseb, France). Nociceptive thresholds, expressed in grams (g), were measured by applying an increasing pressure to the right hind paw until a squeak (vocalization thresholds) was obtained (cut-off 750 g). Two consecutive stable vocalisation threshold values were first obtained (baseline).
# Intrathecal injections were performed on anaesthetised rats held in one hand by the pelvic girdle. A 25 gauge 1 inch needle connected to a 25 µl Hamilton syringe was then inserted into the subarachnoidal space between lumbar vertebrae L5 and L6 until a tail flick was elicited. The syringe was held in position for few seconds after the injection of a volume of 10 µl [49]. All injections were performed under isoflurane anaesthesia (4% induction, 2% maintenance).
# rats [3] = assay: Formalin test, rat; format: in vivo
# Protocol: (§1) The animals received an intraplantar injection of a 2.5% formalin solution (50 µl rat, 25 µl mouse) into a hind paw. The time spent biting and licking of the injected paw was monitored during the two typical phases of the nociceptive response (phase I: 0–5 min; phase II: 20–40 min in rats or 15–40 min in mice).
# TRPV1 = target: T1, TRPV1 (Rattus norvegicus, UniProt O35433); assay: TRPV1 activation assessed as nerve-mediated vasorelaxation in rat isolated mesenteric arteries; format: cell-based; conditions: for times more potent than HPODA as TRPV1 activator / times more potent than AM404 as TRPV1 activator: vasorelaxation readout
# T1 construct: rat mesenteric arterial segments precontracted with phenylephrine; from tissue; host or cells: rat isolated mesenteric arterial segments (Sprague-Dawley rats)
# T1 sequence (O35433 whole entry): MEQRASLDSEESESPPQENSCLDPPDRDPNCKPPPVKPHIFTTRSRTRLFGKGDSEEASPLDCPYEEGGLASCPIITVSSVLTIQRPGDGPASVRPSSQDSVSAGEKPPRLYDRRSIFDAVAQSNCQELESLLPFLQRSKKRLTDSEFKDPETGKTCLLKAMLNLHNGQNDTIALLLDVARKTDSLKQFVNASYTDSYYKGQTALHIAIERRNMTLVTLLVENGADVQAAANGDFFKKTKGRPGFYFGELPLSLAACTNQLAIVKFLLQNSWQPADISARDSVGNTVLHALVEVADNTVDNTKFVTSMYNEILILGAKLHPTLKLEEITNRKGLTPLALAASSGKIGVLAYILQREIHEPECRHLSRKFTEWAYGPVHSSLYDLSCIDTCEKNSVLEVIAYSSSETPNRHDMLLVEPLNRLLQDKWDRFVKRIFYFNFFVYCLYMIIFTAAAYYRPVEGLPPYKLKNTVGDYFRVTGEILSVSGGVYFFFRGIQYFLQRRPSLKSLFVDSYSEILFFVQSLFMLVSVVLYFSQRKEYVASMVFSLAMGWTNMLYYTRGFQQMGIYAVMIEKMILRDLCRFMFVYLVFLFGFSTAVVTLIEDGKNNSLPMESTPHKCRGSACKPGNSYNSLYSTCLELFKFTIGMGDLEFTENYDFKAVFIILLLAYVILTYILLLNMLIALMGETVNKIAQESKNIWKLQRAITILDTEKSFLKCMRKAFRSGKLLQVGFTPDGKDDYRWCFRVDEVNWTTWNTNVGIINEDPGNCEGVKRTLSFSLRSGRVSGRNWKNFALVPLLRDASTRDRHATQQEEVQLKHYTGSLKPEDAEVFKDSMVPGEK
# Protocol: TRPV1 activation was assessed indirectly on rat isolated mesenteric arteries, using nerve-mediated vasorelaxation as readout. Briefly, arterial segments (2 mm long) were suspended between two stainless steel wires in temperature-controlled tissue baths (37°C), containing aerated (95% O2 and 5% CO2) physiological salt solution (composition in mM: NaCl 119, KCl 4.6, CaCl2 1.5, MgCl2 1.2, NaHCO3 15, NaH2PO4 1.2 and D-glucose 6; pH 7.4), under a passive load of 2 mN. One of the wires was connected to a force-displacement transducer model FT03 C (Grass Instruments; Rhode Island, USA) for isometric tension recording. Vasorelaxation was studied in arterial segments submaximally contracted with phenylephrine. Increasing concentrations of AM404, arvanil, olvanil and HPODA in the absence and presence of capsazepine (3 µM) were then added cumulatively to determine concentration-response relationships. All experiments were performed in the presence of indomethacin (10 µM) and N^ω-nitro-L-arginine (300 µM) to reduce cyclooxygenase and nitric oxide synthase activity, respectively.
# Data are presented as the mean ± SEM, and n indicates the number of animal tested in each group. pEC50 of the lipid metabolites indicates the negative log concentration that elicited half-maximal vasorelaxation. Mann-Whitney U test or Student’s t-test was used when two groups were compared. When multiple groups were compared, Kruskal-Wallis one-way ANOVA followed by Dunn’s multiple comparisons test was used. Data from the paw pressure test were analyzed by repeated measures two-way ANOVA followed by Sidak’s or Dunnett’s multiple comparisons test. The level of statistical significance was set at p<0.05. GraphPad Prism 6.0 software (California, USA) was used in all calculations and statistical analyses.
# [4] = Contents of amines and lipid metabolites in blood and brain after i.p. injection in mice (LC-MS/MS); format: in vivo, mouse
# Protocol: Twenty min after drug administration, the animals were anesthetized by CO2 (rats) or isoflurane (mice) inhalation and decapitated. The brain was removed from the skull and blood was collected in test tubes, containing 60 µl buffered citrate, and the tissues snap frozen in liquid nitrogen before storage at −70°C.
# (§2) The whole brain was homogenized in ice-cold 10 mM Tris buffer (ml/g tissue) at pH 7.6. The buffer solution contained 1 mM EDTA, 0.3 mM ascorbic acid and 10 µM methylarachidonylfluorophosphonate (MAFP) to prevent degradation of AM404, arvanil, olvanil, anandamide and 2-arachidonoylglycerol. Aliquots (200 µl) of blood and homogenates were precipitated with 1 ml ice-cold acetone, containing AM404-D4 (5 nM) or anandamide-D8 (100 nM) as internal standard. After centrifugation at 25,200 g for 30 min at 4°C, the supernatants were collected in polypropylene tubes and vacuum evaporated. The protein content of the pellet was determined with Coomassie protein assay (Pierce; Illinois, USA), using bovine serum albumin as standard. […] Samples were analyzed on a Waters Aquity UPLC system coupled to a Sciex 5500 tandem mass spectrometer (LC-MS/MS; AB Sciex; Massachusetts, USA) or a Perkin Elmer 200 HPLC system coupled to an API 3000 tandem mass spectrometer (LC-MS-MS; Applied Biosystems/MDS-SCIEX).
# Quantification of AM404, HPODA, arvanil and olvanil. Samples were analyzed on a Waters Aquity UPLC system coupled to a Sciex 5500 tandem mass spectrometer. Sample aliquots of 5 µl were injected into an Acquity UPLC BEH C18 column (100 × 2 mm, 1.7 µm; Waters) held at 50°C. All mobile phases were water-acetonitrile gradients, containing 0.1% formic acid and using a flow rate of 400 µl/min. The acetonitrile content was initially 30%, then increased linearly to 100% over 7 min and kept at this level for 4 min, followed by an equilibration period at 30% for 2 min. The electrospray interface was operating in the positive ion mode at 550°C and the ion spray voltage was set to 5000 volts. The mass transitions (m/z) used were the following: 396.2/110.1 for AM404, 374.2/110.0 for HPODA, 400.2/114.0 for AM404-D4, 440.3/137.1 for arvanil and 418.3/137.1 for olvanil. The declustering potentials were between 96 and 130 volts and the collision energies between 25 and 41 volts.
# Quantification of 4-aminophenol and HMBA. Sample aliquots of 5 µl were injected into a Hypercarb column (50 × 2.1 mm; Thermo). All mobile phases were water-acetonitrile gradients, containing 0.1% formic acid. The acetonitrile content was initially 2%, then increased linearly to […] over 5 min and then kept at 100% for 1 min, followed by an equilibration period at 2% for 1.5 min. The electrospray ion source was set at 550°C and used in the positive ion mode with an ion spray voltage of 5000. […] HMBA loses the amino group already in the source of the MS and therefore the mass transition used was 137.0/94.0. The declustering potentials were 100 and 90 volts and the collision energies 21 and 29 volts. No internal standard was used for these analyses.
# The contents of the compounds were expressed either in moles or as normalized peak areas (nPA) and related to the protein content in the samples. The nPA was obtained by dividing the peak area of the analyte with the peak area for the internal standard in the same sample. The detection limits were calculated as the concentrations corresponding to three times the standard deviation of the blanks. When levels were below detection limit, numerical values of half the detection limit were used in the calculations.
# [5] = format: in vivo, rat
# Protocol: […] The brain was removed from the skull and blood was collected in test tubes, containing 60 µl buffered citrate, and the tissues snap frozen in liquid nitrogen before storage at −70°C.
# as §2
# Quantification of AM404, HPODA, arvanil and olvanil. Samples were analyzed on a Waters Aquity UPLC system coupled to a Sciex 5500 tandem mass spectrometer. […]
# [6] = test system: patients with postoperative pain; parameters: method as in PMID 18843665; conditions: single oral dose of 1000 mg; cited from earlier work
# rat orthologue of TRPV1 = test system: rat orthologue of TRPV1; parameters: method as in PMID 11159715; conditions: 45Ca2+ uptake assay, CHO cells expressing rat TRPV1; cited from earlier work
# human TRPV1 = test system: human TRPV1; parameters: method as in PMID 11033355; conditions: HEK293 cells expressing human TRPV1, fluorometric calcium imaging; cited from earlier work
# mice = assay: Formalin test, mouse; format: in vivo; conditions: mice
# Protocol: as §1
# [7] = AM251 3 mg/kg i.p., 4-aminophenol 100 mg i.p.
# [8] = 20 min after i.p. 4-aminophenol (30 and 100 mg/kg) or HMBA (300 mg/kg)
# [9] = PMSF 10 mg/kg s.c., 4-aminophenol 100 mg/kg i.p.
# [10] = 20 min after HMBA 300 mg/kg i.p., mouse
# [11] = capsazepine 10 mg/kg i.p., 4-aminophenol 100 mg/kg
smiles,measurement,setting,value
"NCCc1c[nH]c2c(O)cc(O)cc12 [5,7-DHT, 5,7-dihydroxytryptamine]",spinal serotonin content,[1],359±38 ng/g tissue wet weight
same,"effect on antinociceptive effect of 4-aminophenol, rat paw pressure test","rats [2]; 5,7-DHT 100 µg/rat intrathecal, 7 days before test, 4-aminophenol 100 mg/kg i.p.",inhibited the antinociceptive effect
"Cc1c(C(=O)NN2CCCCC2)nn(-c2ccc(Cl)cc2Cl)c1-c1ccc(I)cc1 [AM251, N-(piperidin-1-yl)-5-(4-iodophenyl)-1-(2,4-dichlorophenyl)-4-methyl-1H-pyrazole-3-carboxamide]","effect on antinociceptive effect of 4-aminophenol, rat formalin test",rats [3]; [7],prevented the antinociceptive effect
same,"effect on antinociceptive effect of 4-aminophenol, rat paw pressure test",rats [2]; [7],prevented the antinociceptive effect
"CCCCC/C=C\C/C=C\C/C=C\C/C=C\CCCC(=O)Nc1ccc(O)cc1 [AM404, N-(4-Hydroxyphenyl)-5Z,8Z,11Z,14Z-eicosatetraenamide]",EC50,TRPV1,31.6 nM
same,times more potent than HPODA as TRPV1 activator,TRPV1,3.3 times
same,Brain AM404,"[4]; 20 min after 4-AP 30 mg/kg i.p., mouse",411 pmol/g and 411 ± 134 pmol/g
same,Brain AM404,"[4]; 20 min after 4-AP 100 mg/kg i.p., mouse",4829 ± 1435 pmol/g
same,brain content in FAAH−/− mice compared to FAAH+/+ littermates,[4]; [8],substantially reduced
same,quotient between the brain contents of lipid metabolite and its parent amine,"[4]; mouse, in vivo","1∶1,500"
same,content of AM404 in rat brain at different time points,"[5]; 4-aminophenol 100 mg/kg i.p., 15 min and 30 min",Significant amounts
"CCCCCCCC/C=C\CCCCCCCC(=O)Nc1ccc(O)cc1 [HPODA, N-(4-hydroxyphenyl)-9Z-octadecenamide]",EC50,"TRPV1; capsazepine-sensitive vasorelaxation, rat mesenteric arterial segments precontracted with phenylephrine, read-out: pEC50 (negative log concentration eliciting half-maximal vasorelaxation) (converted)",100 nM
same,brain content in FAAH−/− mice compared to wild-type littermates,"[4]; mouse, in vivo",no significant difference
same,increase of brain content in FAAH−/− mice compared to wild-type littermates,"[4]; mouse, in vivo, 20 min",3 fold
"O=S(=O)(F)Cc1ccccc1 [PMSF, phenylmethylsulfonyl fluoride]",effect on formation of AM404 in rat brain,"[5]; PMSF 10 mg/kg s.c. pretreatment, 20 min after 4-aminophenol 100 mg/kg i.p.",substantially reduced the formation of AM404
same,"effect on antinociceptive effect of 4-aminophenol, rat formalin test",rats [3]; [9],inhibited the antinociceptive effect
same,"effect on antinociceptive effect of 4-aminophenol, rat paw pressure test",rats [2]; [9],inhibited the antinociceptive effect
CC(=O)Nc1ccc(O)cc1 [Paracetamol],NNT (numbers needed to treat) for at least 50% pain reduction over 4–6 hours,[6],3.6
"COc1ccccc1N1CCN(CCN(C(=O)C2CCCCC2)c2ccccn2)CC1.O=C(O)/C=C\C(=O)O [WAY-100635, N-[2-[4-(2-methoxyphenyl)-1-piperazinyl]ethyl]-N-2-pyridinylcyclohexane-carboxamide maleate]","effect on antinociceptive effect of 4-aminophenol, rat formalin test",rats [3]; WAY-100635 40 µg/rat intrathecal 5 min before 4-aminophenol 100 mg/kg i.p.,prevented
"CCCCC/C=C\C/C=C\C/C=C\C/C=C\CCCC(=O)NCc1ccc(O)c(OC)c1 [arvanil, N-(4-hydroxy-3-methoxybenzyl)-5Z,8Z,11Z,14Z-eicosatetraenamide]",EC50,TRPV1,0.2 nM
same,times more potent than AM404 as TRPV1 activator,TRPV1,> 100 times and 172 times
same,times more potent than HPODA as TRPV1 activator,TRPV1,> 300 times
same,Brain Arvanil,"[4]; 20 min after HMBA 100 mg/kg i.p., mouse",3.33 pmol/g
same,Brain Arvanil,"[4]; 20 min after HMBA 100 mg/kg i.p., mouse, listed as Arvanil",3.33 ± 0.33 pmol/g
same,Brain Arvanil,[4]; [10],56 ± 10 pmol/g
same,brain content in FAAH−/− mice compared to FAAH+/+ littermates,[4]; [8],substantially reduced
same,concentration at 20 min,"[4]; in vivo, HMBA 100 mg/kg, mouse, read-out: brain content of arvanil",3.33 pM
same,times more potent than AM404,rat orthologue of TRPV1,933 times
same,times more potent than AM404,human TRPV1,approximately 50 times
"Oc1cc2c(cc1O)CN(C(=S)NCCc1ccc(Cl)cc1)CCC2 [capsazepine, N-[2-(4-Chlorophenyl)ethyl]-1,3,4,5-tetrahydro-7,8-dihydroxy-2H-2-benzazepine-2-carbothioamide]","effect on vasorelaxation evoked by arvanil, olvanil and HPODA",TRPV1; capsazepine 3 µM,significantly suppressed the vasorelaxation
same,effect on antinociceptive effect of 4-aminophenol in formalin test,mice; capsazepine 100 nmol into lateral ventricle 5 min prior to 4-aminophenol 30 mg/kg i.p.,eliminated the antinociceptive effects
same,effect on antinociceptive effect of HMBA in formalin test,mice; capsazepine 100 nmol into lateral ventricle 5 min prior to HMBA 100 mg/kg i.p.,eliminated the antinociceptive effects
same,"effect on antinociceptive effect of 4-aminophenol, rat formalin test",rats [3]; [11],prevented the antinociceptive effect
same,"effect on antinociceptive effect of 4-aminophenol, rat paw pressure test",rats [2]; [11],prevented the antinociceptive effect
Cc1c(N(C)CS(=O)(=O)[O-])c(=O)n(-c2ccccc2)n1C.[Na+] [dipyrone],antinociception in formalin test,mice; dipyrone 50 mg/kg i.p.,effective antinociceptive agent
"CCCCCCCC/C=C\CCCCCCCC(=O)NCc1ccc(O)c(OC)c1 [olvanil, N-(4-hydroxy-3-methoxybenyl)-9Z-octadecenamide]",EC50,TRPV1,0.316 nM
same,times more potent than AM404 as TRPV1 activator,TRPV1,> 100 times and 110 times
same,times more potent than HPODA as TRPV1 activator,TRPV1,> 300 times
same,Brain Olvanil,[4]; [10],45 ± 5.6 pmol/g
same,brain content in FAAH−/− mice compared to FAAH+/+ littermates,"[4]; mouse, in vivo",substantially reduced
same,times more potent than AM404,human TRPV1,approximately 50 times
"CN1[C@@H]2CC[C@H]1C[C@@H](OC(=O)c1c[nH]c3ccccc13)C2 [tropisetron, Tropisetron]","effect on antinociceptive effect of 4-aminophenol, rat paw pressure test",rats [2]; tropisetron 500 ng/rat intrathecal 5 min before 4-aminophenol 100 mg/kg i.p.,prevented
